Experimental data taken from patent publication US20240174690A1, “ANNULATED 2-AMINO-3-CYANO THIOPHENES AND DERIVATIVES FOR THE TREATMENT OF CANCER” (BOEHRINGER INGELHEIM INTERNATIONAL GMBH, priority 2021, published 2024).

Experiments:
KRAS (G12D)::SOS1 = KRAS (G12D)::SOS1 (Homo sapiens (Human), UniProt P01116, G12D); assay: KRAS::SOS1 AlphaScreen binding assay, KRAS G12D
Method in brief: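 KRAS 1-169 (biotinylated avi-tag) with GST-SOS1 564-1049 and 10 µM GDP in PBS/0.1% BSA/0.05% Tween 20: WT and G13D 10 nM each with 10 nM SOS1; G12D 10 nM and G12C 7.5 nM with 5 nM SOS1. After 30 min, glutathione acceptor/streptavidin donor beads were added for 60 min at RT in the dark, then AlphaScreen read; 4-parameter IC50.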

NCI-H2122 cells = assay: NCI-H2122 CTG proliferation assay (120 h) (NSCLC, G12C); format: cell-based; conditions: Homo sapiens
Method: NCI-H2122 CTG Proliferation Assay (120 h) (NSCLC, G12C)
The CTG assay is designed to measure quantitatively the proliferation of NCI-H2122 cells (ATCC CRL-5985), using the CellTiter Glow Assay Kit (Promega G7571). Cells are grown in RPMI medium (ATCC) supplemented with Fetal Calf Serum (Life Technologies, Gibco BRL, Cat. No. 10270-106). On “day 0” 200 NCI-H2122 cells are seeded in 60 μL RPMI ATCC+10% FCS+Penstrep in a black 384-well plate, flat and clear bottom (Greiner, PNr. 781091). Cells are then incubated in the plates at 37° C. in a CO2 incubator overnight. On day 1, compounds (10 mM stock in DMSO) are added with the ECHO acoustic liquid handler system (Beckman Coulter), including DMSO controls. Plates are incubated for 120 h, and cell viability is measured using CellTiter-Glo luminescent cell viability reagent (Promega product code G7570). Viability (stated as percent of control) is defined as relative luminescence units RLU of each well divided by the RLU of cells in DMSO controls. IC50 values are determined from viability measurements by non-linear regression using a four parameter model.

[1] = Plasma protein binding assay (PPB), equilibrium dialysis, 10% FCS in PBS; format: in vitro ADME; conditions: bovine, read-out: PPB 10% FCS (% fu)
Method in brief: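 Equilibrium dialysis (5-10 kg/mol cut-off membrane) of 1-10 μmol/L test compound in 10% FCS/PBS against PBS with or without dextran, 3-5 h at 37° C. Compound in each chamber quantified by LC-MS after protein precipitation; fu calculated from Cserum and Cbuffer.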

KRAS (G12D)::SOS1, sequence (P01116 other isoform, or with tags, fused parts or gaps G12D): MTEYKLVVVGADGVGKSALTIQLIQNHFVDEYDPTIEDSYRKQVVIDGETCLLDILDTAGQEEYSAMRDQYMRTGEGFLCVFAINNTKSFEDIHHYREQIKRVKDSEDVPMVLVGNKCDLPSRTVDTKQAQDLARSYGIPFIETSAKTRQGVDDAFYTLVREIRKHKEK

Structure (SMILES)	IC50 (KRAS (G12D)::SOS1) [nM]	IC50 (NCI-H2122 cells) [nM]	fraction unbound [1]
CO[C@@H]1C[C@@H]([C@H](C)Oc2cc(-c3cnn(C)n3)nc(-c3noc4c3CCC[C@@]43CCCc4sc(N)c(C#N)c43)n2)N(C)C1 [II-62]	7	4790	0.18
C[C@H](Oc1cc(N2Cc3cnn(C)c3C2)nc(-c2noc3c2CCC[C@@]32CCCc3sc(N)c(C#N)c32)n1)[C@@H]1CCCN1C [II-63]	12	3390	0.06
C[C@H](Oc1cc(N2CCN3CCC3C2)nc(-c2onc3c2CCC[C@@]32CCCc3sc(N)c(C#N)c32)n1)[C@@H]1CCCN1C (stereo partly drawn) [I-9]	2	3340	0.8
C[C@H](Oc1cc(-n2cc(C3CC3)nn2)nc(-c2noc3c2CCC[C@@]32CCCc3sc(N)c(C#N)c32)n1)[C@@H]1CCCN1C [II-118]	4	1010	0.08
C[C@H](Oc1cc([C@H]2CCOC2)nc(-c2noc3c2CCC[C@@]32CCCc3sc(N)c(C#N)c32)n1)[C@@H]1CCCN1C [II-88]	1	434	0.2
C[C@H](Oc1cc(-n2cccc3cnnc2-3)nc(-c2noc3c2CCC[C@@]32CCCc3sc(N)c(C#N)c32)n1)[C@@H]1CCCN1C [II-92]	14	1810	0.09
C[C@H](Oc1cc(-n2ccnc2)nc(-c2noc3c2CCC[C@@]32CCCc3sc(N)c(C#N)c32)n1)[C@@H]1C[C@@H](F)CN1C [II-120]	9	1090	0.24
C[C@H](Oc1cc(N2CC[C@@H](O)C2)nc(-c2noc3c2CCC[C@@]32CCCc3sc(N)c(C#N)c32)n1)[C@@H]1CCCN1C [II-66]	1	5010	0.41
C[C@H](Oc1cc(-c2cn(C3COC3)nn2)nc(-c2noc3c2CCC[C@@]32CCCc3sc(N)c(C#N)c32)n1)[C@@H]1CCCN1C [II-100]	6	2140	0.28
C[C@H](Oc1cc(-c2ccncc2)nc(-c2noc3c2CCC[C@@]32CCCc3sc(N)c(C#N)c32)n1)[C@@H]1CCCN1C [II-78]	4	2140	0.49
CO[C@@H]1C[C@@H]([C@H](C)Oc2cc(-c3ccn(C4COC4)n3)nc(-c3noc4c3CCC[C@@]43CCCc4sc(N)c(C#N)c43)n2)N(C)C1 [II-107]	4	5720	0.24
C[C@H](Oc1cc(-n2cncn2)nc(-c2noc3c2CCC[C@@]32CCCc3sc(N)c(C#N)c32)n1)[C@@H]1CCCN1C [II-70]	2	891	0.44
C[C@H](Oc1cc(-c2cc[nH]n2)nc(-c2noc3c2CCC[C@@]32CCCc3sc(N)c(C#N)c32)n1)[C@@H]1CCCN1C [II-71]	2	933	0.59
C[C@H](Oc1cc([C@@H]2CCOC2)nc(-c2noc3c2CCC[C@@]32CCCc3sc(N)c(C#N)c32)n1)[C@@H]1CCCN1C [II-94]	1	834	0.31
C[C@H](Oc1cc(-n2ccc(-c3ccccn3)n2)nc(-c2noc3c2CCC[C@@]32CCCc3sc(N)c(C#N)c32)n1)[C@@H]1CCCN1C [II-119]	2	251	0.04
C[C@H](Oc1cc(-c2ccn(C[C@@H](C)O)n2)nc(-c2noc3c2CCC[C@@]32CCCc3sc(N)c(C#N)c32)n1)[C@@H]1CCCN1C [II-117]	2	47	0.19
C[C@H](Oc1cc(-c2ccccn2)nc(-c2noc3c2CCC[C@@]32CCCc3sc(N)c(C#N)c32)n1)[C@@H]1CCCN1C [II-85]	2	1120	0.08
C[C@H](Oc1cc(-c2ccc(N)nc2)nc(-c2noc3c2CCC[C@@]32CCCc3sc(N)c(C#N)c32)n1)[C@@H]1CCCN1C [II-101]	4	1520	0.23
